Measurements: PubChem BioAssay (NCI)
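Protocol summary: plate cells (96-well), add compound at 5 concentrations, incubate 48 h, interpolate endpoints linearly. TGI denotes the concentration required for complete inhibition of growth.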

Legend:
Experiment in all cases: DTP human tumour cell line panel, 48 h
786-0 renal = tested on: 786-0 renal
ACHN renal = tested on: ACHN renal
BT-549 breast = tested on: BT-549 breast
COLO 205 colon = tested on: COLO 205 colon
EKVX NSCLC = tested on: EKVX NSCLC
HCT-116 colon = tested on: HCT-116 colon
HCT-15 colon = tested on: HCT-15 colon
HT29 colon = tested on: HT29 colon
NCI-H23 lung = tested on: NCI-H23 lung
OVCAR-5 ovarian = tested on: OVCAR-5 ovarian
SK-MEL-2 melanoma = tested on: SK-MEL-2 melanoma
SK-MEL-5 melanoma = tested on: SK-MEL-5 melanoma
SN12C renal = tested on: SN12C renal
SNB-19 CNS = tested on: SNB-19 CNS
UACC-257 melanoma = tested on: UACC-257 melanoma
UACC-62 melanoma = tested on: UACC-62 melanoma
A498 renal = tested on: A498 renal
HCC-2998 colon = tested on: HCC-2998 colon
HOP-62 NSCLC = tested on: HOP-62 NSCLC
IGROV1 ovarian = tested on: IGROV1 ovarian
KM12 colon = tested on: KM12 colon
LOX IMVI melanoma = tested on: LOX IMVI melanoma
M14 melanoma = tested on: M14 melanoma
MALME-3M melanoma = tested on: MALME-3M melanoma
MDA-MB-435 = tested on: MDA-MB-435
NCI-H522 lung = tested on: NCI-H522 lung
NCI/ADR-RES ovarian = tested on: NCI/ADR-RES ovarian
OVCAR-3 ovarian = tested on: OVCAR-3 ovarian
OVCAR-8 ovarian = tested on: OVCAR-8 ovarian
RXF 393 renal = tested on: RXF 393 renal
SF-295 CNS = tested on: SF-295 CNS
SF-539 CNS = tested on: SF-539 CNS
SK-MEL-28 melanoma = tested on: SK-MEL-28 melanoma
SK-OV-3 ovarian = tested on: SK-OV-3 ovarian
T-47D breast = tested on: T-47D breast
TK-10 renal = tested on: TK-10 renal
UO-31 renal = tested on: UO-31 renal
A549 NSCLC = tested on: A549 NSCLC
CAKI-1 renal = tested on: CAKI-1 renal
CCRF-CEM leukemia = tested on: CCRF-CEM leukemia
DU-145 prostate = tested on: DU-145 prostate
HL-60(TB) leukemia = tested on: HL-60(TB) leukemia
HOP-92 NSCLC = tested on: HOP-92 NSCLC
K-562 leukemia = tested on: K-562 leukemia
MCF7 breast = tested on: MCF7 breast
MDA-MB-231 breast = tested on: MDA-MB-231 breast
MOLT-4 leukemia = tested on: MOLT-4 leukemia
NCI-H226 lung = tested on: NCI-H226 lung
NCI-H460 lung = tested on: NCI-H460 lung
OVCAR-4 ovarian = tested on: OVCAR-4 ovarian
PC-3 prostate = tested on: PC-3 prostate
RPMI-8226 leukemia = tested on: RPMI-8226 leukemia
SF-268 CNS = tested on: SF-268 CNS
SNB-75 CNS = tested on: SNB-75 CNS
SR leukemia = tested on: SR leukemia
SW-620 colon = tested on: SW-620 colon
U251 CNS = tested on: U251 CNS

CN(C)c1ccc(/C=C2\C[C@H]3[C@@H]4CCc5cc(OCCN6CCCC6)ccc5[C@H]4CC[C@]3(C)C2=O)cc1
TGI (786-0 renal): 2.6 µM
TGI (ACHN renal): 3.11 µM
TGI (BT-549 breast): > 100 µM
TGI (COLO 205 colon): 2.85 µM
TGI (EKVX NSCLC): 6.32 µM
TGI (HCT-116 colon): 2.45 µM
TGI (HCT-15 colon): 2.66 µM
TGI (HT29 colon): 0.814 µM
TGI (NCI-H23 lung): > 100 µM
TGI (OVCAR-5 ovarian): 8.62 µM
TGI (SK-MEL-2 melanoma): 3.93 µM
TGI (SK-MEL-5 melanoma): 3.22 µM
TGI (SN12C renal): 2.97 µM
TGI (SNB-19 CNS): 4.09 µM
TGI (UACC-257 melanoma): 5.35 µM
TGI (UACC-62 melanoma): 4.24 µM

Cc1sc2nc(-c3ccc(Cl)c([N+](=O)[O-])c3)c(/C=N/N=C(N)N)n2c1C
TGI (786-0 renal): 1.92 µM
TGI (A498 renal): 3.06 µM
TGI (ACHN renal): 2.77 µM
TGI (BT-549 breast): 3.07 µM
TGI (COLO 205 colon): 1.31 µM
TGI (EKVX NSCLC): 3.14 µM
TGI (HCC-2998 colon): 2.64 µM
TGI (HCT-15 colon): 2.65 µM
TGI (HOP-62 NSCLC): 1.7 µM
TGI (HT29 colon): 2.63 µM
TGI (IGROV1 ovarian): 2.44 µM
TGI (KM12 colon): 1.87 µM
TGI (LOX IMVI melanoma): 2.44 µM
TGI (M14 melanoma): 3.29 µM
TGI (MALME-3M melanoma): 3.68 µM
TGI (MDA-MB-435): 3.11 µM
TGI (NCI-H522 lung): 3.34 µM
TGI (NCI/ADR-RES ovarian): 6.59 µM
TGI (OVCAR-3 ovarian): 3.5 µM
TGI (OVCAR-5 ovarian): 2.93 µM
TGI (OVCAR-8 ovarian): 2.03 µM
TGI (RXF 393 renal): 3.13 µM
TGI (SF-295 CNS): 3.4 µM
TGI (SF-539 CNS): 2.99 µM
TGI (SK-MEL-28 melanoma): 2.18 µM
TGI (SK-OV-3 ovarian): 3.13 µM
TGI (T-47D breast): 4.76 µM
TGI (TK-10 renal): 3.2 µM
TGI (UO-31 renal): 3.07 µM

CC(C)(C)c1cc(-c2cc(C(C)(C)C)n(-c3ccccc3)n2)nn1-c1ccccc1
TGI (786-0 renal): > 100 µM
TGI (A498 renal): > 100 µM
TGI (A549 NSCLC): > 100 µM
TGI (ACHN renal): > 100 µM
TGI (BT-549 breast): > 100 µM
TGI (CAKI-1 renal): > 100 µM
TGI (CCRF-CEM leukemia): > 100 µM
TGI (COLO 205 colon): > 100 µM
TGI (DU-145 prostate): > 100 µM
TGI (EKVX NSCLC): > 100 µM
TGI (HCC-2998 colon): > 100 µM
TGI (HCT-116 colon): > 100 µM
TGI (HCT-15 colon): > 100 µM
TGI (HL-60(TB) leukemia): > 100 µM
TGI (HOP-62 NSCLC): > 100 µM
TGI (HOP-92 NSCLC): > 100 µM
TGI (HT29 colon): > 100 µM
TGI (IGROV1 ovarian): > 100 µM
TGI (K-562 leukemia): > 100 µM
TGI (KM12 colon): > 100 µM
TGI (LOX IMVI melanoma): > 100 µM
TGI (M14 melanoma): > 100 µM
TGI (MCF7 breast): > 100 µM
TGI (MDA-MB-231 breast): > 100 µM
TGI (MDA-MB-435): > 100 µM
TGI (MOLT-4 leukemia): > 100 µM
TGI (NCI-H226 lung): > 100 µM
TGI (NCI-H23 lung): > 100 µM
TGI (NCI-H460 lung): > 100 µM
TGI (NCI-H522 lung): > 100 µM
TGI (NCI/ADR-RES ovarian): > 100 µM
TGI (OVCAR-3 ovarian): > 100 µM
TGI (OVCAR-4 ovarian): > 100 µM
TGI (OVCAR-5 ovarian): > 100 µM
TGI (OVCAR-8 ovarian): > 100 µM
TGI (PC-3 prostate): > 100 µM
TGI (RPMI-8226 leukemia): > 100 µM
TGI (RXF 393 renal): > 100 µM
TGI (SF-268 CNS): > 100 µM
TGI (SF-295 CNS): > 100 µM
TGI (SF-539 CNS): > 100 µM
TGI (SK-MEL-2 melanoma): > 100 µM
TGI (SK-MEL-28 melanoma): > 100 µM
TGI (SK-MEL-5 melanoma): > 100 µM
TGI (SK-OV-3 ovarian): > 100 µM
TGI (SN12C renal): > 100 µM
TGI (SNB-75 CNS): > 100 µM
TGI (SR leukemia): > 100 µM
TGI (SW-620 colon): > 100 µM
TGI (T-47D breast): > 100 µM
TGI (TK-10 renal): > 100 µM
TGI (U251 CNS): > 100 µM
TGI (UACC-257 melanoma): > 100 µM
TGI (UACC-62 melanoma): > 100 µM
TGI (UO-31 renal): > 100 µM
